Source: US20040097534A1, “Composition for the protection and regeneration of nerve cells containing berberine derivatives” (EUGENBIO INC., priority 2001, published 2004)
“And” between values parts separate entries of the source, which are not always exact repeats. Identical values can stand only once. “Also recorded” adds a separate entry of the source.

Columns and labels:
[1] = test system: HiB5 cells; assay: Induction of differentiation of HiB5 cells into nerve cells (neurite count, confocal); type: cell-based, white rat; details: HiB5, bFGF positive control
Method: (§1) Thereafter, the culture was treated with berberine and further cultured for 2 days. The cultured cells were immunostained with nerve cell-specific labeled molecule, and then the number of cells having neurites longer than cell bodies was counted under a confocal microscope. A positive control was treated with bFGF under the same condition as described above to induce the differentiation into nerve cells. In addition, the neuroregenerative effect was examined after berberine together with bFGF was treated. The differentiation degree was measured by double-staining neurites with nerve cell-specific labeled molecule (anti-neurofilament antibody) and FITC-labeled secondary antibody (green), followed by staining cell nuclei with propidium iodide (red).

[2] = test system: HiB5 cells
Method: Since HiB5 cells derived from white rat embryonic hippocampus were prepared by retroviral infection of temperature sensitive SV40 large T antigen, they divided at […], but the cell division stopped at 39° C. (body temperature of rat). […] Cell culture medium was prepared by adding a mixture of 10% FBS (fetal bovine serum), penicillin/streptomycin, glutamine and sodium pyruvate (0.11 g/L) to DMEM. On differentiating at 39° C., another cell culture medium was prepared by adding pyruvate to a serum-free medium (N2, containing DMEM/F12, insulin, transferrin, Putreseine and BSA; Botten Stein & Sato., 1979). PC12 cells and SH-SY5Y cells were cultured in DMEM supplemented with 10% FBS. In order to differentiate the cells, NGF or retinoic acid was added to a serum-free medium.
(§2) Cell injuries under condition of serum deprivation-induced stress and oxidative stress were measured by MTT assay. For MTT assay, Cells were seeded into N2 medium in an amount of 7.5×10^3 cells, and then a neurotoxin or a nerve growth factor was added thereto to differentiate the cells and then 0.1 volume of 4 mg/ml MTT was further added. The mixture was stored at 37° C. for 3-4 hours. After 100 μl of solubilization buffer was added to the mixture and then stored for 24 hours, O.D. values were measured by ELISA assay.
HiB5 cell line used in this experiment was prepared by infecting primary cultured cells of temperature sensitive SV40 large T antigen in rat embryonic hippocampus (embryonic day 16) using retroviral vectors. The HiB5 cell line was divided at the permissive temperature (32° C.), but the cell division stopped at the non-permissive temperature (body temperature of rat: 39° C.). A small number of GABAegic neurons differentiated in the rat embryonic hippocampus (embryonic day 16), and glutamatergic pyramidal cell precursors still divided, some of which penetrated into dentate gyrus regions through dentate migration pathways in embryonic day 18 to differentiate into glutamatergic granule cells (Altman J., Bayer. S. A. (1990a) Prolonged sojourn of developing pyramidal cells in the intermediate zone of the hippocampus and their settling in the stratum pyramidale. J Comp Neurol. 301, 343-64.; Altman J., Das G. D. (1965) Post-natal origin of microneurones in the rat brain, Nature. 28, 953-956.). When cells stop their cell-division and start to differentiate in vivo, apoptosis occurs.
In order to evaluate the protective effect of berberine against apoptosis and the effect of increasing cell survival, HiB5 cells were cultured under conditions for initiation of differentiation. At this time, the culture was treated with berberine at various concentrations (50 ng/ml˜6 μg/ml). The protective effect of berberine against apoptosis was measured by MTT assay. A positive control group was treated with bFGF to block apoptosis, increase cell survival and induce the differentiation into nerve cells.
Since HiB5 neuronal stem cells undergo cell death during the differentiation, the cells were considered as a negative control group. The percentage of O.D. values is determined for the groups treated with bFGF and berberine, respectively.

[3] = test system: SH-SY5Y cells; assay: MTT assay, SH-SY5Y survival under oxidative stress (H2O2); type: cell-based, human
Method: SH-SY5Y cells were treated with H2O2 for 30 minutes to induce cell injuries. 3 hours before the cells were treated with H2O2, berberine (0.25˜3.5 μg) was added to cell culture to examine its cell protection effect (see, Table 4 and FIG. 4b).

[4] = test system: nerve cells in CA1, dentate gyrus and entorhinal cortex; assay: Animal model for dementia (ibotenic acid into entorhinal cortex), calbindin-positive neuron count; type: in vivo, rat
Method: After white rat brain was fixed with a stereotaxic frame, 1.5 μl (1 mg/ml) of ibotenic acid and PBS, or 1.5 μl (1 mg/ml) of berberine was injected into the entorhinal cortex region using a microinjector to prepare a model for dementia. […]
Brain was fixed with 4% paraformaldehyde and cryosected to a thickness of 40 μm, and then the cryosected brain was permeablized with 0.5% Triton X-100 for 20 minutes and blocked using 15% blocking serum for 2 hours. After reacting with anti-calbindin antibody at a temperature 4° C. for 16 hours and then further reacting with FITC-labeled secondary antibody or rhodamin (TRITC)-labeled secondary antibody for 1 hour, the cells were fixed on a slide before examining under a confocal microscope.
As an animal model for dementia, ibotenic acid was microinjected into the entorhinal cortex of adult rat brain using a stereotaxic frame.
First, an adult rat was anesthetized, and its head was fixed with a stereotaxic frame. Subsequently, 1.5 μl (1 mg/ml) of ibotenic acid was injected into the entorhinal cortex region to prepare a model for dementia, and then berberine was injected into the same site. 2 weeks after operation, brain tissue sections were counter-stained with hematocylin to examine apoptosis and protective effect. After fluorescence-staining the cells, regions used for cell count were represented as squares (FIG. 14). In addition, the cells were fluorescence-stained with calbindin antibody, a nerve-specific marker, to examine nerve cell survival (see, Tables 8 to 10, FIGS. 11 and 12).

[5] = test system: nerve cells highly sensitive to NMDA receptors; details: MK-801 to young rat (7-8-days old); cited from earlier work
[6] = test system: SH-SY5Y cells; assay: MTT assay, SH-SY5Y survival under serum deprivation-induced stress; type: cell-based, human; details: N2 + retinoic acid 5 μM
Method: as §2
In order to prepare a stroke-like cell model using SH-SY5Y, the cells were cultured under serum deprivation. […] Retinoic acid, which induces the differentiation of SH-SY5Y as a cell differentiation factor, was used as a positive control. 3 hours before depriving serum, the cells were treated with berberine (0.25˜3 μg). The cells were cultured in chemically defined media (N2) for 2 days to induce nerve regeneration (see, Table 2 and FIG. 4a).

[7] = test system: SH-SY5Y cells; assay: Neurite regeneration in SH-SY5Y cells; type: cell-based, human; details: retinoic acid
Method: as §1, with “(red). In order to examine the effect of berberine on neurite regeneration, SH-SY5Y cells were used as differentiated nerve cell lines. Retinoic acid inducing neurite growth was used as a positive control.” for “(red).”

[8] = test system: PC12 cells; assay: MTT assay, PC12 survival under dexamethasone (glucocorticoid) stress; type: cell-based, rat
Method: as §2
Glucocorticoids are hormones secreted from the adrenal glands, and involve in a variety of metabolic processes including glycometabolism. In particular, stress causes release of glucocorticoids to reduce cell divisions of neuronal stem cells in the brain and induce apoptosis of nerve cells. Therefore, PC12 cells were treated with dexamethasone, a glucocorticoid derivative, to examine the effect of berberine against apoptosis of nerve cells. 3 hours after treatment with berberine, dexamethasone (1) was added to a culture solution and incubated for 2 days to induce neuroregeneration (see, Table 5 and FIG. 5b).

[9] = test system: PC12 cells; assay: MTT assay, PC12 survival under serum deprivation-induced stress; type: cell-based, rat; details: RPMI + NGF 100 ng/ml
Method: as §2
NGF, increasing cell survival and inducing cell differentiation, was used as a positive control. After the cells were treated with berberine (0.25˜3 μg/ml), the cells were cultured for 2 days to induce nerve regeneration (see, Table 3 and FIG. 5a).

[10] = Ibotenic Acid alone (reference)
[11] = N2 + dexamethasone + NGF 100 ng/ml

## bFGF: basic fibroblast growth factor, positive control increasing HiB5 survival and differentiation
[1]
  differentiation into nerve cells (morphology): induced the differentiation into nerve cells; also recorded: cell bodies got smaller and neurites got longer
[2]; HiB5 under differentiation conditions, MTT
  cell survival rate / protective effect against apoptosis, increase over control: 1.5 times and 1.6 times
[2]; bFGF 20 ng, control = 100
  O.D. %: 150%

## OO [H2O2, reference compound]
[3]; N2, H2O2 150 μM alone
  O.D.: 0.056
[3]; N2, H2O2 150 μM alone (reference = 100%; N2 without H2O2 = 429%)
  Average (O.D. relative to H2O2 alone): 100%

## N[C@H](C(=O)O)c1cc(=O)[nH]o1 [Ibotenic Acid, ibotenic acid, reference compound]
[4]; Ibotenic Acid alone
  cell number relative to Ibotenic Acid average = 100, CA (individual animals #1-#3): 116 and 112 and 73
  cell number relative to Ibotenic Acid average = 100, DG (individual animals #1-#3): 123 and 105 and 72
  cell number relative to Ibotenic Acid average = 100, ENT (individual animals #1-#3): 100 and 105 and 94
  cell number, CA (individual animals #1-#3): 57 and 55 and 36
  cell number, CA, AVR: 49.3
  cell number, DG (individual animals #1-#3): 227 and 193 and 133
  cell number, DG, AVR: 184.3
  cell number, ENT (individual animals #1-#3): 73 and 77 and 68
  cell number, ENT, AVR: 72.7
[4]; [10]
  cell number (%) relative to Ibotenic Acid, CA, average: 100%
  cell number (%) relative to Ibotenic Acid, DG, average: 100%
  cell number (%) relative to Ibotenic Acid, ENT, average: 100%
[4]; ibotenic acid alone, 2 weeks after microinjection
  reduction of calbindin-positive neurons in the hippocampus and entorhinal cortex: 30˜40%
[4]; ibotenic acid alone, 4 weeks after microinjection
  calbindin-positive neurons, recovery: recovered somewhat; also recorded: some of them were recovered

## MK-801
[5]
  number of dead nerve cells, of total nerve cells: 12-26%

## CC1=C(/C=C/C(C)=C/C=C/C(C)=C/C(=O)O)C(C)(C)CCC1 [Retinoic acid, reference compound]
[3]; N2, H2O2 + retinoic acid 5 μM
  Average (O.D. relative to H2O2 alone): 321%
  O.D.: 0.179
[6]; 2 days
  O.D.: 0.871.
[6]; N2 = 100%
  Average (O.D. relative to N2): 130%
[7]; N2 = 22.30
  Number of differentiated cells: 18.91
[7]; N2 = 42.33
  total average cell numbers: 24.75
[7]; N2 = 44.47
  Average (%) of differentiated cells: 81.59%

## NGF: nerve growth factor, positive control in PC12 cells
[8]; [11]
  Average (O.D. relative to dexamethasone alone): 147%
  O.D.: 0.283
[8]; dexamethasone stress, 2 days
  cell survival rate increase: about 1.5 times
[9]; 2 days
  O.D.: 0.349
[9]; RPMI = 100%
  Average (O.D. relative to RPMI): 208%

## C[C@@H]1C[C@H]2[C@@H]3CCC4=CC(=O)C=C[C@]4(C)[C@@]3(F)[C@@H](O)C[C@]2(C)[C@@]1(O)C(=O)CO [Dexamethasone, dexamethasone, reference compound]
[8]; N2 + dexamethasone 1 μM alone
  O.D.: 0.193
[8]; N2 + dexamethasone 1 μM alone (reference = 100%; N2 = 118%)
  Average (O.D. relative to dexamethasone alone): 100%
